Experimental data as given in patent publication US12291651B2, “Liquid crystal-infused slippery anti-fouling surfaces” (priority 2021, dated 2025).
Values belong to the compound of their own block, whether it stands above or below them.

Key:
[1] = Contact angle and base diameter of surfactant droplets on LC-infused SLIPS; assay type: physicochemical; settings: 50 μL droplets: 100 mM DBTAB aqueous; 100 μM SDS in PBS
S. aureus QS [2] = settings: cited from earlier work
S. aureus QS [3] = test: Sliding time of droplets of S. aureus WT culture grown with QS inhibitor on LC-infused SLIPS; assay type: cell-based; settings: WT S. aureus cultured 24 hours with 1 μM inhibitor; QS mutant ~7 s, WT ~27 s
Method: Characterization of Droplet Sliding Times. Characterization of the sliding times of droplets placed on the surfaces of LC-infused SLIPS was performed in the following general manner. LC-infused SLIPS were placed on a custom-made stage, and the stage was attached to the moving arm of a digital protractor using binding clips. The digital protractor was set at a specified sample angle, and a pre-determined volume of aqueous solution was placed as a droplet on the surface of the liquid-infused surface. Sliding droplets were recorded on digital video, and the time required for droplets to slide 4.0 cm along the surface was measured using a digital timer. […] For each surfactant solution, the sliding times of at least 3-5 droplets were measured and used to calculate an average sliding time with standard deviation. […]
Additional experiments were performed to determine whether LC-infused SLIPS could detect the presence of PSMs in live cultures of S. aureus and, thereby, provide methods to monitor QS in communities of this pathogen in ways analogous to the studies of P. aeruginosa above. For these experiments, a S. aureus WT strain and a QS mutant strain (lacking AgrBD, proteins critical for QS) were cultured for 24 hours and the sliding times of droplets of these cultures on LC-infused SLIPS were measured. […]

[4] = air-water interface; cited from earlier work

droplet base diameter on LC-infused SLIPS [1]: 4.14±0.02 mm
Compound: CCCCCCCCCCCCOS(=O)(=O)[O-].[Na+] [SDS, Sodium dodecyl sulfate]

Compound: AIP-III D4A
concentration that fully inhibits S. aureus QS (S. aureus QS [2]): ≥ 1 nM
sliding time of culture droplets (S. aureus QS [3]): ~7 s

Compound: CCCCCCCCCCCC[N+](C)(C)C.[Br-] [DTAB, dodecyl-trimethylammonium bromide]
limiting surface area [4]: 55-63 Å^2
